Experimental data: ChEMBL document CHEMBL5046310, “Design, Synthesis and Biological Evaluation of Prodrugs of 666-15 as Inhibitors of CREB-Mediated Gene Transcription” (ACS Med Chem Lett, 2022)

Experiments:
[1] = Tmax in C57BL/6 mouse at 10 mg/kg, ip measured up to 24 hrs by LC-MS/MS analysis; assay type: ADME, organism-based; settings: in vivo
[2] = Tmax in C57BL/6 mouse at 20 mg/kg, po measured up to 24 hrs by LC-MS/MS analysis; assay type: ADME, organism-based; settings: in vivo
[3] = Apparent permeability of the compound across apical to basolateral side in human Caco-2 cells; assay type: ADME, cell-based
[4] = Stability of the compound in DMEM media with 10% fetal bovine serum assessed as hydrolysis of prodrug at 25 uM measured for 5 mins by RP-HPLC analysis; assay type: ADME, cell-free; settings: cattle

Tmax [1] [h] | Tmax [2] [h] | Papp A→B [3] [×10⁻⁶ cm/s] | t1/2 [4] [h] | Structure (SMILES)
0.25 | 2 | < 0.11 | – | Cl.NCCCOc1cc2ccccc2cc1C(=O)NCCOc1cc2ccccc2cc1C(=O)Nc1ccc(Cl)cc1O
– | – | – | 2.61 | NCCCOc1cc2ccccc2cc1C(=O)NCCOc1cc2ccccc2cc1C(=O)Nc1ccc(Cl)cc1OCOP(=O)(O)O.O=C(O)C(F)(F)F
1 | 2 | – | – | NCCCOc1cc2ccccc2cc1C(=O)NCCOc1cc2ccccc2cc1C(=O)Nc1ccc(Cl)cc1OP(=O)(O)O.O=C(O)C(F)(F)F
